Data on three substances can be found in paper PMC8999133, “Resemblance-Ranking Peptide Library to Screen for Binders to Antibodies on a Peptidomic Scale” (International Journal of Molecular Sciences, 2022).

One test concerns rituximab. Conditions: forward and reverse sequences; not bound by other anti-CD20 mAbs; cited from earlier work. The source says: The peptide […] from the resem ...
In the next test the test system is rituximab (RTX). In words: First screen of the resemblance-ranking peptide library with RTX, fluorescent immunostaining. The class given is binding. The note with it: RTX 30 µg/mL; among 160,000 peptides.

Experimental for rituximab (RTX): Peptide microarrays: A peptide library of 160,000, peptides as well other peptide microarrays for the substitutions and the KD analysis, were fabricated via the ultra-high-density peptide microarray technology of AXXELERA (Karlsruhe, Germany) [49]. The AXXELERA technology allows for the 30 µm-sized square peptide spots with a pitch of 60 µm that corresponds to ca. 28,000 spots/cm^2.
Immunostaining: Peptide microarrays were incubated with the monoclonal anti-CD20 antibody rituximab (Sigma-Aldrich, Steinheim, Germany) with concentrations depending on the type of experiment, diluted in PBS-T (Phosphate Buffered Saline with Tween) overnight at 4 °C. A rituximab concentration of 30 µg/mL was used for the first screen of the entire resemblance-ranking peptide library. Then, the peptide chips were stained with the fluorescently labeled secondary anti-human-IgG antibodies (Jackson ImmunoResearch, Philadelphia, PA, USA). The signals from the spots were read out with the confocal scanner Innoscan 1100 AL. The scans were performed in the red channel (635 nm), with a resolution of 2 µm/pixel, a speed of 35 µm/s, and a PMT gain of 9.

For ELWKPW, the binding to rituximab entry in the test with rituximab is “bind rituximab”. LWKPWLQPCC: the “ratio to the maximum signal value” in the test with rituximab (RTX) is on record as 0.13. With WPKWLE, in the test with rituximab, the binding to rituximab result is “bind rituximab”.
